Source: publication PMC12316285, “The porphyran degradation system is complete, phylogenetically and geographically diverse across the gut microbiota of East Asian populations” (PLOS One, 2025)

Tests used:
BpS1_11 (Bacple_01701) = target: T1, BpS1_11 (Bacple_01701) (Phocaeicola plebeius, UniProt B5CYA4); experiment: 1H NMR of products; type: biochemical; settings: desulfation of the non-reducing-end L-galactose 6-sulfate
T1 construct: signal peptide removed; pET-28 or pFO4, HisTrap purified; formylglycine sulfatase (Ser83 is formylglycine in mature enzyme)
T1 sequence (B5CYA4 entry or part of it): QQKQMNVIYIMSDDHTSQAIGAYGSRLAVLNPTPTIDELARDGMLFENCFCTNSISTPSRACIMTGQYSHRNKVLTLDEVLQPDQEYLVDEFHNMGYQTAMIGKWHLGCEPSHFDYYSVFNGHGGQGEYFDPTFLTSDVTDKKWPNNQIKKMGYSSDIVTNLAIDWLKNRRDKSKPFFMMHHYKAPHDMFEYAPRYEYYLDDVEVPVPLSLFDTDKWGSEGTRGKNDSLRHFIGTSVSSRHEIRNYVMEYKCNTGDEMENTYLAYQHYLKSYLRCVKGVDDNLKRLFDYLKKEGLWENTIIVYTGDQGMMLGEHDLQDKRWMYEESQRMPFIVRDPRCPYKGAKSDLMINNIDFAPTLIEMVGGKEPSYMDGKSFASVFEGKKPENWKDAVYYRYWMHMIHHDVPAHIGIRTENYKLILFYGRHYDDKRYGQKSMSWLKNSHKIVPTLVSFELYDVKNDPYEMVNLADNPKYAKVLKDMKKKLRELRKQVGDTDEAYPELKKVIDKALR

BpGH16C (Bacple_01703) = target: T2, BpGH16C (Bacple_01703) (Phocaeicola plebeius, UniProt B5CYA6); experiment: X-ray crystal structure, […] Å, soaked crystal; type: binding; settings: inactive mutant; soaked with tetrasaccharide, only a trisaccharide modelled (subsites -1 to -3; Figure 2 legend says disaccharide); pH 7.5
T2 construct: signal peptide removed; pET-28 or pFO4, HisTrap purified; three independent molecules in asymmetric unit of complex
T2 sequence (B5CYA6 entry or part of it E178L): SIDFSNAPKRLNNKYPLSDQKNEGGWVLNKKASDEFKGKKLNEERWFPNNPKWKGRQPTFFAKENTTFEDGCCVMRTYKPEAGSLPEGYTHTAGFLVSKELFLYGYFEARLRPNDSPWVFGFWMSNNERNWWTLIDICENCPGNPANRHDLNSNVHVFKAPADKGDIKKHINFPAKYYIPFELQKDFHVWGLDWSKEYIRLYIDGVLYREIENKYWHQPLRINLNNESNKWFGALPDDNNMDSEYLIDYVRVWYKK

BpGH2C (Bacple_01706) = target: T3, BpGH2C (Bacple_01706) (Phocaeicola plebeius, UniProt B5CYA9); experiment: 1H NMR after sequential enzyme incubation; type: biochemical; settings: substrate made in situ by BpS1_[…] then BpGH29
T3 construct: signal peptide removed; pET-28 or pFO4, HisTrap purified
T3 sequence (B5CYA9 1-1086): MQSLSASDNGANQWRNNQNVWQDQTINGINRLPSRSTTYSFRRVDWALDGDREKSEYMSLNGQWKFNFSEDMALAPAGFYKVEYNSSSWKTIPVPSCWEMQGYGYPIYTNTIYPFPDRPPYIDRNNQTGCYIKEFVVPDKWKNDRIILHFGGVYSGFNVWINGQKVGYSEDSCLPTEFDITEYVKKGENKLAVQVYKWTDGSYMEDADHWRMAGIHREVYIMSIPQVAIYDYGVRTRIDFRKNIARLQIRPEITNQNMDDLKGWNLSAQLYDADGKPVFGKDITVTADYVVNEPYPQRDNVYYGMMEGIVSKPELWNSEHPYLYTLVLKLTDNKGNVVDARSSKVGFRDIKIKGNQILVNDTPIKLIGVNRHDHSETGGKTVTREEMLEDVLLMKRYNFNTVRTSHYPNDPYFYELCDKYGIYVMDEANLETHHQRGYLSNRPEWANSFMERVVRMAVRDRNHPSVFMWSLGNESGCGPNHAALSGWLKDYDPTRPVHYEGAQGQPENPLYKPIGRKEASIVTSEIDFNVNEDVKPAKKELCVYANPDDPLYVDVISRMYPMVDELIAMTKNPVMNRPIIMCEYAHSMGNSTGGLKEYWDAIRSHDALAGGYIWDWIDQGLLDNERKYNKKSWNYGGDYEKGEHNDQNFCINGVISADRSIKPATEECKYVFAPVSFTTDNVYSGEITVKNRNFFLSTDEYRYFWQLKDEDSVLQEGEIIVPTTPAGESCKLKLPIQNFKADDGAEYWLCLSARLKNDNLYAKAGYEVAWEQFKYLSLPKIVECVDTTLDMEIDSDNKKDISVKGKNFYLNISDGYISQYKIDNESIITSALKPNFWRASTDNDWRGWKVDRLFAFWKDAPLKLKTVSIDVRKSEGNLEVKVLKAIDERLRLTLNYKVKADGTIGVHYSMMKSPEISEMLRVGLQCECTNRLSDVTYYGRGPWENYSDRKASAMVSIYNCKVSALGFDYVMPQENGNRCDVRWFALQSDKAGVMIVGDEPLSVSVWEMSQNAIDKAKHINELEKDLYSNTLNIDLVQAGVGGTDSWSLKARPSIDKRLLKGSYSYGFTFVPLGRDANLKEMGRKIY

## O=S(=O)(O)OC[C@@H]1O[C@@H](O[C@H]2[C@@H](O)[C@@H](CO)O[C@@H](O[C@H]3[C@@H](O)[C@H](O)[C@H](O[C@H]4[C@@H](O)[C@@H](CO)OC(O)[C@@H]4O)O[C@H]3COS(=O)(=O)O)[C@@H]2O)[C@@H](O)[C@H](O)[C@@H]1O (stereo partly drawn) [L-α-6O-sulfate-Gal-(1 → 3)-D-β-Gal-(1 → 4)-L-α-6O-sulfate-Gal-(1 → 3)-D-a/β-Gal]
BpS1_11 (Bacple_01701)
  1H NMR of products: After desulfation of the tetra-saccharides
BpGH16C (Bacple_01703)
  X-ray crystal structure, 1.8 Å, soaked crystal: we crystallized the E145L inactive mutant with the tetrasaccharide

## O=S(=O)(O)OC[C@@H]1O[C@@H](O[C@H]2[C@@H](O)[C@@H](CO)OC(O)[C@@H]2O)[C@@H](O)[C@H](O)[C@@H]1O[C@@H]1O[C@H](CO)[C@H](O)[C@H](O)[C@H]1O (stereo partly drawn) [trisaccharide with non-methylated D-galactose at the non-reducing end]
BpGH2C (Bacple_01706)
  1H NMR after sequential enzyme incubation: methylated or non-methylated D-galactose residue located at the non-reducing end of the trisaccharide was cleaved
